Measurements reported in US20230257374A1, “NOVEL KRAS G12C PROTEIN INHIBITOR, PREPARATION METHOD THEREFOR, AND USE THEREOF” (INNOVENT BIOLOGICS (SUZHOU) CO., LTD., priority 2019, published 2023).

What was measured:
[1] = target: T1, KRAS G12C protein (Homo sapiens, UniProt P01116, G12C); assay: ERK protein phosphorylation assay (p-ERK) in H358 cells; assay type: cell-based; parameters: scale not given here; settings: H358 cells expressing KRAS G12C protein, 3 h incubation with compound; read-out: IC50, inhibiting phosphorylation of KRAS G12C protein-mediated downstream signaling (p-ERK)
T1 construct: H358 cells (ATCC, CRL-5807) expressing KRAS G12C protein; host or cells: H358 (NCI-H358) cells
Method in brief: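 After paraformaldehyde fixation and methanol permeabilization, phospho-ERK detected by immunofluorescence read on an Odyssey CLx imager.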

[2] = system: H1373 cell line (K-RAS G12C); assay: cells; assay type: cell-based; settings: for IC50: Homo sapiens, NCI-H1373, 96 h, 3D culture, CellTiter-Glo 3D, read on day 4, read-out: H1373 (K-RAS G12C) IC50; for Selectivity (fold number of mutant vs. wild type): PC-9 IC50 vs. H1373 IC50
Protocol: (§1) a) On day 1, seed cells were placed in T75 a flask. b) On day 3, the medium was taken out and washed once with DPBS. c) Cells were trypsinized with 2 mL TrypLE™ Express enzyme at room temperature (RT) or 37° C. until cells detached. d) 5 mL of fresh medium was added to suspend the cells, and then the suspension was centrifuged at 1000 rpm and room temperature for 5 min. e) The supernatant was discarded, and the cells were resuspended in 5 mL of fresh medium and counted using Countess™ H. f) The cells were seeded back into the T75 flask for further culture or placed into an assay plate for 3D cell proliferation assay.
(§2) The cells were seeded at a density of 600 cells/well in a 384-well plate with 40 μL of medium per well and a final DMSO concentration of 0.5%. b) On day 4, a 3D CTG reagent was added to each well, followed by shaking at room temperature for 1 h. c) The signals were recorded using Envision.
(§3) a) Robustness was examined using 0.5% DMSO and data of blank control medium: H=mean (DMSO); L=mean (medium); SD (H)=STDEV (DMSO); SD (L)=STDEV (medium);
(§4) Y=peak valley value+(peak top value−peak valley value)/(1+10^((Log IC50−X)×HillSlope));
(§5) X: logarithm of compound concentration; Y: percent inhibition (% inhibition); Peak top and peak valley values: the plateau period units are the same as Y; log IC50: the same logarithmic unit as X; HillSlope: slope coefficient or Hill slope.

[3] = system: MIA PaCa-2 cell line (K-RAS G12C); assay: cells; assay type: cell-based; settings: for IC50: Homo sapiens, MIA PaCa-2, 96 h, 3D culture, CellTiter-Glo 3D, read on day 4, read-out: MIA PaCa-2 (K-RAS G12C) IC50; for Selectivity (fold number of mutant vs. wild type): PC-9 IC50 vs. MIA PaCa-2 IC50
Protocol: as §1, §2, §3, §4, §5

[4] = system: PC-9 cell line (K-RAS wild type); assay: cells; assay type: cell-based; settings: Homo sapiens, PC-9, 96 h; 3D culture, CellTiter-Glo 3D, read on day 4
Protocol: as §1, §2, §3, §4, §5

[5] = in vitro; settings: human, Caco-2, pH 7.4
Protocol: Drug penetration test: the Transwell culture plate was retrieved from the incubator. […] All samples were prepared in double parallel. The integrity of the cell monolayer membrane after 2 hours of incubation was assessed using leakage of fluorescein; fluorescein stock solution was diluted with HBSS (25 mM HEPES, pH 7.4) to a final concentration of 100 μM. 100 μL of fluorescein solution was added to each well of the upper Transwell plate and 300 μL of HBSS (25 mM HEPES, pH 7.4) was added to each well of the lower receiving plate; after incubation at 37° C. for 30 min, 80 μL of the solution was pipetted from the upper and lower layers of each well to a new 96-well plate.
The apparent permeability coefficients (Papp, unit: cm/s) of the compounds in Caco-2 cells were calculated from the specific concentrations at the acceptor and donor ends, and the specific calculation formula is as follows: […]
where VA represents the volume of the acceptor end solution (0.3 mL for Ap→Bl, 0.1 mL for Bl→Ap); Area represents the area of the Transwell-96 well plate (0.143 cm^2); time represents the incubation time (unit: s); [drug]acceptor represents the drug concentration (ratio of peak area to internal standard area) at the acceptor end; [drug]initial, donor represents the drug concentration at the donor end (ratio of peak area to internal standard area).
The efflux ratio was calculated as follows: […]
where Papp (B-A) represents the apparent permeability coefficient from base end to top end; Papp (A-B) represents the apparent permeability coefficient from top end to base end.

T1 sequence (P01116 1-188 isoform P01116-2 G12C): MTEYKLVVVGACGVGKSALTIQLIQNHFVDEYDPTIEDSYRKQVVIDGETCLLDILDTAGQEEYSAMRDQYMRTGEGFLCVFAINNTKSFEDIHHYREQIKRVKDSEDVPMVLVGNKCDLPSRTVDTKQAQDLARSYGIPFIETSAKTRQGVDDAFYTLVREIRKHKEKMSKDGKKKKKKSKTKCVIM

Row | IC50 [1] [nM] | IC50 [2] [nM] | IC50 [3] [nM] | IC50 [4] [nM] | Papp A→B at 2 h, 10 μM [5] [×10⁻⁶ cm/s] | Papp B→A at 2 h, 10 μM [5] [×10⁻⁶ cm/s] | efflux ratio at 2 h, 10 μM [5] | Compound | Selectivity (fold number of mutant vs. wild type) [2] [fold] | Selectivity (fold number of mutant vs. wild type) [3] [fold]
1 | < 1000 | 0.68 | 0.49 | 4810 | 0.63 | 5.5 | 8.7 | [2H]C([2H])([2H])c1cccc2cccc(N3CCc4c(nc(OC[C@@H]5CCCN5C)nc4N4CCN(C(=O)C=C)[C@@H](CC#N)C4)C3)c12 [Compound 1, 2-((S)-1-acryloyl-4-(7-(8-(methyl-d3)naphthalen-1-yl)-2-(((S)-1-methylpyrrolidin-2-yl)methoxy)-5,6,7,8-tetrahydropyrido[3,4-d]pyrimidin-4-yl)piperazin-2-yl)acetonitrile] | 7074 | 9816
2 | < 1000 | 0.26 | 0.51 | 2370 |  |  |  | [2H]C([2H])([2H])N1CCC[C@H]1COc1nc2c(c(N3CCN(C(=O)C=C)[C@@H](CC#N)C3)n1)CCN(c1cccc3cccc(C)c13)C2 [Compound 42, 2-((S)-1-acryloyl-4-(7-(8-methylnaphthalen-1-yl)-2-(((S)-1-(methyl-d3)pyrrolidin-2-yl)methoxy)-5,6,7,8-tetrahydropyrido[3,4-d]pyrimidin-4-yl)piperazin-2-yl)acetonitrile] | 9115 | 4647
